Series [1] in a line: Kinetic solubility of compound in PBS at pH 6.8 incubated for 24 hrs by UPLC/MS analysis. In kind it is physicochemical. The conditions noted are these: read-out: Kinetic_solubility.
Another series concerns human MDR1 (P-gp). Description: Apparent permeability across apical to basolateral side in pig LLC-PK1 cells expressing human MDR1 at 10 uM measured after 60 mins by LC/MS/MS analysis. In kind it is ADME, cell-based, Sus scrofa.
Series [2] can be described thus: Permeability of the compound in PRISMA HT buffer at pH 7.4 at 10 uM incubated for 3 hrs by PAMPA based LC/MS/MS analysis. The conditions noted are these: read-out: permeability. In kind it is ADME.
Series [3] in a line: Hepatic blood flow in mouse at […], iv administered as cassette dose. It is filed as ADME, organism-based. The conditions noted are these: in vivo, dose 0.25 mg/kg.
Series [4] in a line: AUC in mouse at […], iv administered as cassette dose. It is filed as ADME, organism-based. Further details: dose 0.25 mg/kg, route iv. The note with it: in vivo.

The record followed here is ChEMBL document CHEMBL5143716, “Design, Synthesis, and Optimization of Macrocyclic Peptides as Species-Selective Antimalaria Proteasome Inhibitors” (J Med Chem, 2022).

SMILES strings stand for the structures. Values after ≈ are worked out from the molar mass of the structure shown. Some results are limits rather than exact numbers.

Consider `Cc1ccc(CNC(=O)[C@@H]2Cc3cccc(c3)Oc3cccc(c3)C[C@H](N)C(=O)N[C@@H](CCc3ccccc3)C(=O)N2)cc1`, for which, in series [1], the solubility kinetic at 24 h is below 1.6 µg/mL. Also, the Papp A→B (in general, how fast a substance crosses the layer from the apical side) at 1 h, 10 µM in the series with human MDR1 (P-gp) is above 0.29 ×10⁻⁶ cm/s.
With `O=C(NC1CCCC1)[C@@H]1CCCCOc2cccc(c2)C[C@H](N2CCCC2=O)C(=O)N[C@@H](CCN2CCOCC2)C(=O)N1`, in series [1], the solubility kinetic at 24 h was above 130 µg/mL. Besides, in the series on human MDR1 (P-gp), the apparent permeability from apical to basolateral (Papp A→B) at 1 h, 10 µM is above 0.2 ×10⁻⁶ cm/s. Besides, in series [2], the Papp at 3 h, 10 µM is 1.5 ×10⁻⁶ cm/s.
Turning to `CN[C@H]1Cc2cccc(c2)OCCCC[C@@H](C(=O)NC2CCCC2)NC(=O)[C@H](CCN2CCOCC2)NC1=O`, the solubility kinetic at 24 h in series [1] was above 140 µg/mL. The Papp A→B at 1 h, 10 µM in the series with human MDR1 (P-gp) was above 0.2 ×10⁻⁶ cm/s.
With `O=C(NC1CCCC1)[C@@H]1CCCCOc2cccc(c2)C[C@H](N2CCCC2=O)C(=O)N[C@@H](CCc2ccccc2)C(=O)N1`, in series [1], the solubility kinetic at 24 h was 100 µg/mL (≈ 170 µM). In addition, the Papp A→B at 1 h, 10 µM in the series with human MDR1 (P-gp) was 5.7 ×10⁻⁶ cm/s. For the same compound, the Papp at 3 h, 10 µM in series [2] came to 15.1 ×10⁻⁶ cm/s.
Take `O=C(NCC(F)(F)F)[C@@H]1COCCOc2cccc(c2)C[C@H](N2CCCC2=O)C(=O)N[C@@H](CCc2ccccc2)C(=O)N1`: in series [1], the solubility kinetic at 24 h was below 130 µg/mL. Further, the Papp at 3 h, 10 µM in series [2] was 12 ×10⁻⁶ cm/s.
For `O=C(NC1(C(F)(F)F)CC1)[C@@H]1CCCCOc2cccc(c2)C[C@H](N2CCCC2=O)C(=O)N[C@@H](CCc2ccccc2)C(=O)N1`, in series [1], the solubility kinetic at 24 h was determined as 31 µg/mL (≈ 49.3 µM). Moreover, in the series with human MDR1 (P-gp), the Papp A→B at 1 h, 10 µM was determined as 4.4 ×10⁻⁶ cm/s. In addition, the Papp at 3 h, 10 µM in series [2] stood at 14.5 ×10⁻⁶ cm/s.
Regarding `CC(=O)N[C@H]1Cc2cccc(c2)Oc2cccc(c2)C[C@@H](C(=O)NCC(F)(F)F)NC(=O)[C@H](CCc2ccccc2)NC1=O`, the solubility kinetic at 24 h in series [1] is below 1.4 µg/mL. In the series on human MDR1 (P-gp), the apical-to-basolateral permeability (Papp A→B) at 1 h, 10 µM is above 0.077 ×10⁻⁶ cm/s.
As for `O=C(NCC(F)(F)F)[C@@H]1CCCCOc2cccc(c2)C[C@H](N2CCCC2=O)C(=O)N[C@@H](CCc2ccccc2)C(=O)N1`, in series [3], the QH was 93.33 mL/min/kg. For the same compound, in series [1], the solubility kinetic at 24 h worked out at 76 µg/mL (≈ 126 µM). Also, the Papp A→B at 1 h, 10 µM in the series with human MDR1 (P-gp) worked out at 5.3 ×10⁻⁶ cm/s. Also, the AUC (usually concentration integrated over time) in series [4] was found to be 0.6 ng·h/mL. In addition, the Papp at 3 h, 10 µM in series [2] stood at 18.7 ×10⁻⁶ cm/s.
Turning to `O=C1N[C@H](c2nnc(C(F)(F)F)o2)CCCCOc2cccc(c2)C[C@H](N2CCCC2=O)C(=O)N[C@H]1CCc1ccccc1`, in series [1], the solubility kinetic at 24 h turned out to be 6.2 µg/mL (≈ 10.1 µM). Also, the apparent permeability from apical to basolateral (Papp A→B) at 1 h, 10 µM with human MDR1 (P-gp) was found to be 1.1 ×10⁻⁶ cm/s. Besides, the Papp at 3 h, 10 µM in series [2] was 16 ×10⁻⁶ cm/s.
Turning to `CN(C)[C@H]1Cc2cccc(c2)OCCCC[C@@H](C(=O)NC2CCCC2)NC(=O)[C@H](CCN2CCOCC2)NC1=O`, in series [1], the solubility kinetic at 24 h was above 130 µg/mL. Besides, the Papp A→B at 1 h, 10 µM with human MDR1 (P-gp) was found to be 0.12 ×10⁻⁶ cm/s. The Papp at 3 h, 10 µM in series [2] was 2 ×10⁻⁶ cm/s.
`O=C(NCC1CC1)[C@@H]1CCCCOc2cccc(c2)C[C@H](N2CCCC2=O)C(=O)N[C@@H](CCc2ccccc2)C(=O)N1`: in series [1], the solubility kinetic at 24 h came out at 49 µg/mL (≈ 85.3 µM). The apparent permeability from apical to basolateral (Papp A→B) at 1 h, 10 µM with human MDR1 (P-gp) is 6.8 ×10⁻⁶ cm/s. Also, in series [2], the Papp at 3 h, 10 µM stood at 10.3 ×10⁻⁶ cm/s.
`O=C(NCC(F)F)[C@@H]1CCCCOc2cccc(c2)C[C@H](N2CCCC2=O)C(=O)N[C@@H](CCc2ccccc2)C(=O)N1`: in series [1], the solubility kinetic at 24 h turned out to be 35 µg/mL (≈ 59.9 µM). Further, the apparent permeability from apical to basolateral (Papp A→B) at 1 h, 10 µM with human MDR1 (P-gp) is above 1.1 ×10⁻⁶ cm/s. Besides, in series [2], the Papp at 3 h, 10 µM came to 7.2 ×10⁻⁶ cm/s.
For `O=C(NCC(F)(F)F)[C@@H]1Cc2cccc(c2)Oc2cccc(c2)C[C@H](N2CCCC2=O)C(=O)N[C@@H](CCc2ccccc2)C(=O)N1`, the solubility kinetic at 24 h in series [1] turned out to be 3.8 µg/mL (≈ 5.97 µM).
`Cn1cc(CNC(=O)[C@@H]2CCCCOc3cccc(c3)C[C@H](N3CCCC3=O)C(=O)N[C@@H](CCc3ccccc3)C(=O)N2)cn1`: in series [1], the solubility kinetic at 24 h was above 120 µg/mL. Besides, the Papp A→B at 1 h, 10 µM with human MDR1 (P-gp) was above 0.6 ×10⁻⁶ cm/s. Also, in series [2], the Papp at 3 h, 10 µM turned out to be 1.1 ×10⁻⁶ cm/s.
As for `CC(=O)N[C@H]1Cc2cccc(c2)Oc2cccc(c2)C[C@@H](C(=O)NCc2ccc(C)cc2)NC(=O)[C@H](CCc2ccccc2)NC1=O`, the apparent permeability from apical to basolateral (Papp A→B) at 1 h, 10 µM in the series on human MDR1 (P-gp) is above 3.4 ×10⁻⁶ cm/s. Further, the Papp at 3 h, 10 µM in series [2] came out at 2.2 ×10⁻⁶ cm/s.
`O=C(NC1CCCC1)[C@@H]1CCCCOc2cccc(c2)C[C@H](N2CCC2)C(=O)N[C@@H](CCN2CCOCC2)C(=O)N1`: the solubility kinetic at 24 h in series [1] is above 140 µg/mL. Besides, the apparent permeability from apical to basolateral (Papp A→B) at 1 h, 10 µM in the series with human MDR1 (P-gp) was above 0.2 ×10⁻⁶ cm/s.
`CC1(C)Cc2cccc(c2)OCCCC[C@@H](C(=O)NC2CCCC2)NC(=O)[C@H](CCN2CCOCC2)NC1=O`: the solubility kinetic at 24 h in series [1] is 90 µg/mL (≈ 166 µM). The apical-to-basolateral permeability (Papp A→B) at 1 h, 10 µM with human MDR1 (P-gp) amounted to 3.5 ×10⁻⁶ cm/s. The Papp at 3 h, 10 µM in series [2] came to 26.9 ×10⁻⁶ cm/s.
Consider `O=C(NC1CCCC1)[C@@H]1CCCCOc2cccc(c2)C[C@H](N2CCCC2=O)C(=O)N[C@@H](CCN2CCC(F)(F)CC2)C(=O)N1`, for which the solubility kinetic at 24 h in series [1] is above 130 µg/mL. The Papp A→B at 1 h, 10 µM with human MDR1 (P-gp) was 4 ×10⁻⁶ cm/s. Moreover, the Papp at 3 h, 10 µM in series [2] worked out at 13.3 ×10⁻⁶ cm/s.
Take `O=C(NC1CCCC1)[C@@H]1CCCCOc2cccc(c2)CC2(COC2)C(=O)N[C@@H](CCN2CCOCC2)C(=O)N1`: the solubility kinetic at 24 h in series [1] was 68 µg/mL (≈ 122 µM). Further, the Papp A→B at 1 h, 10 µM with human MDR1 (P-gp) is above 2.8 ×10⁻⁶ cm/s. Further, the Papp at 3 h, 10 µM in series [2] was 8.9 ×10⁻⁶ cm/s.
Take `O=C(NC1CCCC1)[C@@H]1CCCCOc2cccc(c2)C[C@H](N2CCCC2=O)C(=O)N[C@@H](COc2ccccc2)C(=O)N1`: the solubility kinetic at 24 h in series [1] was 20 µg/mL (≈ 33.9 µM). Besides, in series [2], the Papp at 3 h, 10 µM worked out at 20.8 ×10⁻⁶ cm/s.
For `O=C1N[C@H](c2nnc(C(F)(F)F)[nH]2)CCCCOc2cccc(c2)C[C@H](N2CCCC2=O)C(=O)N[C@H]1CCc1ccccc1`, the solubility kinetic at 24 h in series [1] amounted to 2 µg/mL (≈ 3.26 µM). Moreover, the apical-to-basolateral permeability (Papp A→B) at 1 h, 10 µM with human MDR1 (P-gp) was above 2.1 ×10⁻⁶ cm/s. Moreover, in series [2], the Papp at 3 h, 10 µM was determined as 8.2 ×10⁻⁶ cm/s.
`O=C(NC1CCCC1)[C@@H]1CCCCOc2cccc(c2)C[C@H](N2CCCC2=O)C(=O)N[C@@H](CCc2ccc(F)cc2)C(=O)N1`: the solubility kinetic at 24 h in series [1] was 17 µg/mL (≈ 28 µM). Also, the apical-to-basolateral permeability (Papp A→B) at 1 h, 10 µM in the series on human MDR1 (P-gp) came out at 4.5 ×10⁻⁶ cm/s. Further, the Papp at 3 h, 10 µM in series [2] was determined as 21.2 ×10⁻⁶ cm/s.
